According to patent US20050020671A1, “Pharmaceutical formulation” (priority 2001, published 2005):
Structures can show the parent of a compound that is named as a salt.

Test: chemical compatibility of ranitidine hydrochloride and acetylsalicylic acid in contact
Assay type: physicochemical
Details: the two actives in physical contact; degradation products form, reaction manifest in a matter of days
Text: British Patent No 2,105,193 discloses pharmaceutical compositions comprising a systemic non-steroidal anti-inflammatory drug and ranitidine or a physiologically acceptable salt thereof. […] These two active ingredients react chemically with each other to produce degradation products. The reaction becomes manifest in a matter of days and implies a serious stability problem for pharmaceutical compositions containing both active ingredients.

chemical compatibility with acetylsalicylic acid: clear chemical incompatibility
Compound: CNC(=C[N+](=O)[O-])NCCSCc1ccc(CN(C)C)o1 [ranitidine hydrochloride, N-[2-[[[5-(dimethylamino)methyl]-2-furanyl]methyl]thio]ethyl-N′-methyl-2-nitro-1,1-ethanediamine]
